Converted amounts (≈) assume the structure as drawn. The source made the active and inactive calls. The rule behind the calls is not given here. Peptide text beside a SMILES is read from it.
Columns and labels:
Staphylococcus aureus [1] = assay: In vivo antibacterial activity against vancomycin resistant Staphylococcus aureus infected in kunming mouse assessed as reduction in bacterial load in peritoneum at 10 mg/kg, iv measured 18 hrs after infection; format: functional, organism-based
Staphylococcus aureus [2] = assay: In vivo antibacterial activity against vancomycin resistant Staphylococcus aureus infected in kunming mouse assessed as reduction in bacterial load in peritoneum at 10 mg/kg, ip measured 18 hrs after infection; format: functional, organism-based
Macrophage [3] = assay: Immunomodulatory activity in mouse peritoneal macrophage assessed as inhibition of LPS-induced IL-6 level measured after 6 hrs by qRT-PCR analysis; format: functional, tissue-based; conditions: dose 5-20 µg/ml
Macrophage [4] = assay: Immunomodulatory activity in mouse peritoneal macrophage assessed as inhibition of LPS-induced TNF-alpha level measured after 6 hrs by qRT-PCR analysis; format: functional, tissue-based; conditions: dose 5-20 µg/ml
Mus musculus [5] = assay: Immunomodulatory activity in mouse assessed as increase number of neutrophil in peritoneal cavity at 10 mg/kg, ip measured after 5 to 24 hrs by flow cytometry; format: functional, organism-based; conditions: time 5-24 hrs
Neutrophil [6] = assay: Immunomodulatory activity in neutrophils (unknown origin) assessed as inhibition of LPS-induced IL-6 level at 5 to 20 ug/ml by ELISA; format: functional, cell-based; conditions: dose 5-20 µg/ml
Mus musculus [7] = assay: Immunomodulatory activity in Kunming mouse infected with vancomycin-resistant Staphylococcus aureus assessed as increased in MCP-1 level in peritoneal lavage at 10 mg/kg, ip administered 24 hrs before infection by ELISA; format: functional, organism-based
Escherichia coli [8] = assay: In vivo antibacterial activity against Escherichia coli ATCC 25922 infected in kunming mouse assessed as decrease in bacterial load in peritoneal lavage at 10 mg/kg, ip administered 4 hrs after infection and measured 18 hrs after infection; format: functional, organism-based; conditions: time 14.0 hrs
L02 = assay: Cytotoxicity against human HL7702 cells assessed as cell death at 100 ug/ml by MTT assay; format: cell-based
[9] = Immunomodulatory activity in mouse peritoneal macrophage assessed as increase in IL-10 mRNA level at 20 ug/ml measured after 6 hrs by qRT-PCR analysis relative to control; format: functional; conditions: dose 20 µg/ml
[10] = tested on: Staphylococcus epidermidis; assay: Antimicrobial activity against Staphylococcus epidermidis IS 08032706 incubated for 16 to 18 hrs by fluorescence microplate reader analysis; format: functional; conditions: time 16-18 hrs
Enterococcus faecium = assay: Antimicrobial activity against Enterococcus faecium IS 1299 incubated for 16 to 18 hrs by fluorescence microplate reader analysis; format: functional; conditions: time 16-18 hrs
[11] = Toxicity in Kunming mouse assessed as effect on IL-1beta levels at 10 mg/kg, ip measured after 5 hrs by ELISA; format: organism-based; conditions: in vivo
Staphylococcus aureus [12] = assay: Antimicrobial activity against methicillin sensitive Staphylococcus aureus ATCC 25923 incubated for 16 to 18 hrs by fluorescence microplate reader analysis; format: functional; conditions: time 16-18 hrs
Macrophage [13] = assay: Inhibition of LPS-induced phosphorylation of p38 in mouse peritoneal macrophage pretreated for 1 hr followed by LPS stimulation measured after 30 mins by Western blot analysis; format: tissue-based; conditions: dose 5-20 µg/ml, time 1.5 hrs
[14] = Toxicity in Kunming mouse assessed as effect on MIP-2 levels at 10 mg/kg, ip measured after 5 hrs by ELISA; format: organism-based; conditions: in vivo
Candida albicans [15] = assay: Antimicrobial activity against Candida albicans IS 08022821 incubated for 16 to 18 hrs by fluorescence microplate reader analysis; format: functional; conditions: time 16-18 hrs
[16] = target: Mitogen-activated protein kinase 8/9 (Homo sapiens) (UniProt P45983+P45984); assay: Inhibition of LPS-induced phosphorylation of Jnk1/2 in mouse peritoneal macrophage at 20 ug/ml pretreated for 1 hr followed by LPS stimulation measured after 30 mins by Western blot analysis relative to control; format: tissue-based; conditions: dose 20.0 µg/ml, time 1.5 hrs
Bacillus cereus = assay: Antimicrobial activity against Bacillus cereus incubated for 16 to 18 hrs by fluorescence microplate reader analysis; format: functional; conditions: time 16-18 hrs
Candida albicans [17] = assay: Antimicrobial activity against Candida albicans IS 08030401 incubated for 16 to 18 hrs by fluorescence microplate reader analysis; format: functional; conditions: time 16-18 hrs
Enterococcus faecalis = assay: Antimicrobial activity against Enterococcus faecalis IS 981 incubated for 16 to 18 hrs by fluorescence microplate reader analysis; format: functional; conditions: time 16-18 hrs
Pseudomonas aeruginosa = assay: Antimicrobial activity against Pseudomonas aeruginosa IS 08031014 incubated for 16 to 18 hrs by fluorescence microplate reader analysis; format: functional; conditions: time 16-18 hrs
Neutrophil [18] = assay: Immunomodulatory activity in neutrophils (unknown origin) assessed as effect on IL-6 level at 20 ug/ml measured after 12 hrs by ELISA; format: functional, cell-based; conditions: dose 20.0 µg/ml
Mus musculus [19] = assay: Immunomodulatory activity in Kunming mouse infected with vancomycin-resistant Staphylococcus aureus assessed as effect number of inflammatory monocytes in peritoneal cavity at 10 mg/kg, ip measured upto 24 hrs by flow cytometry; format: functional, organism-based; conditions: time hrs <=24
Macrophage [20] = assay: Immunomodulatory activity in mouse peritoneal macrophage assessed as inhibition of LPS-induced IL-6 level measured after 24 hrs by ELISA; format: functional; conditions: dose 5-20 µg/ml
Staphylococcus aureus [21] = assay: Antimicrobial activity against vancomycin resistant Staphylococcus aureus IS 08032810, incubated for 16 to 18 hrs by fluorescence microplate reader analysis; format: functional; conditions: time 16-18 hrs
Staphylococcus aureus [22] = assay: Antibacterial activity against vancomycin-resistant Staphylococcus aureus assessed as bacterial growth inhibition in presence of 100 mmol NaCl; format: functional
[23] = Toxicity in Kunming mouse assessed as effect on MCP-1 levels at 10 mg/kg, ip measured after 5 hrs by ELISA; format: organism-based; conditions: in vivo
Macrophage [24] = assay: Inhibition of NFkappaB in mouse peritoneal macrophage assessed as LPS-induced IkappaBalpha degradation at 5 to 20 ug/ml pretreated for 1 hr followed by LPS stimulation measured after 30 mins by Western blot analysis; format: tissue-based; conditions: dose 20.0 µg/ml, time 1.5 hrs
Nocardia asteroides = assay: Antimicrobial activity against Nocardia asteroids incubated for 16 to 18 hrs by fluorescence microplate reader analysis; format: functional; conditions: time 16-18 hrs
Macrophage [25] = assay: Inhibition of LPS-induced phosphorylation of p38 in mouse peritoneal macrophage at 20 ug/ml pretreated for 1 hr followed by LPS stimulation measured after 30 mins by Western blot analysis relative to control; format: tissue-based; conditions: dose 20.0 µg/ml, time 1.5 hrs
Nakaseomyces glabratus = assay: Antimicrobial activity against Candida glabrata IS 08A802 incubated for 16 to 18 hrs by fluorescence microplate reader analysis; format: functional; conditions: time 16-18 hrs
[26] = Immunomodulatory activity in mouse peritoneal macrophage assessed as inhibition of LPS-induced IL-6 level at 5 ug/ml measured after 6 hrs by qRT-PCR analysis relative to control; format: functional
Neutrophil [27] = assay: Immunomodulatory activity in neutrophils (unknown origin) assessed as inhibition of LPS-induced CXCL1/KC level at 5 to 20 ug/ml by ELISA; format: functional, cell-based; conditions: dose 5-20 µg/ml
[28] = Cytotoxicity against mouse peritoneal macrophage assessed as cell death at 100 ug/ml by MTT assay; format: tissue-based
Staphylococcus aureus [29] = assay: In vivo antibacterial activity against vancomycin resistant Staphylococcus aureus infected in kunming mouse assessed as reduction in bacterial load in peritoneal lavage at 10 mg/kg, ip administered 4 hrs after infection; format: functional, organism-based
[30] = Immunomodulatory activity in mouse peritoneal macrophage assessed as increase in MCP-1 mRNA level at 20 ug/ml measured after 6 hrs by qRT-PCR analysis relative to control; format: functional; conditions: dose 20 µg/ml
Escherichia coli [31] = assay: Antimicrobial activity against Escherichia coli ATCC 25922 incubated for 16 to 18 hrs by fluorescence microplate reader analysis; format: functional; conditions: time 16-18 hrs
Neutrophil [32] = assay: Immunomodulatory activity in neutrophils (unknown origin) assessed as inhibition of LPS-induced MCP-1 level at 5 to 20 ug/ml by ELISA; format: functional, cell-based; conditions: dose 5-20 µg/ml

Sequence of Mitogen-activated protein kinase 8/9 (Homo sapiens) (P45983 whole entry, looked up): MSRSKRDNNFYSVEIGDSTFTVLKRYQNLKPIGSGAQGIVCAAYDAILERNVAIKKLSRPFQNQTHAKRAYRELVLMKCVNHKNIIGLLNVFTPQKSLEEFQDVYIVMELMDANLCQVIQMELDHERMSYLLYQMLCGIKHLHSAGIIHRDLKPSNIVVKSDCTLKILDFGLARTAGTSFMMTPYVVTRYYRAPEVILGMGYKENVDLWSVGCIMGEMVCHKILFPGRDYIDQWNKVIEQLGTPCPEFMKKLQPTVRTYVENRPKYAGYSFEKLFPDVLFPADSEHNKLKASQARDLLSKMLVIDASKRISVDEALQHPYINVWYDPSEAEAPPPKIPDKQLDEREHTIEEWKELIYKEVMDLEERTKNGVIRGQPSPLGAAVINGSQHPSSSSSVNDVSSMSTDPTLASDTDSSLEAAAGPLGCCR
Sequence of Mitogen-activated protein kinase 8/9 (Homo sapiens) (P45984 whole entry, looked up): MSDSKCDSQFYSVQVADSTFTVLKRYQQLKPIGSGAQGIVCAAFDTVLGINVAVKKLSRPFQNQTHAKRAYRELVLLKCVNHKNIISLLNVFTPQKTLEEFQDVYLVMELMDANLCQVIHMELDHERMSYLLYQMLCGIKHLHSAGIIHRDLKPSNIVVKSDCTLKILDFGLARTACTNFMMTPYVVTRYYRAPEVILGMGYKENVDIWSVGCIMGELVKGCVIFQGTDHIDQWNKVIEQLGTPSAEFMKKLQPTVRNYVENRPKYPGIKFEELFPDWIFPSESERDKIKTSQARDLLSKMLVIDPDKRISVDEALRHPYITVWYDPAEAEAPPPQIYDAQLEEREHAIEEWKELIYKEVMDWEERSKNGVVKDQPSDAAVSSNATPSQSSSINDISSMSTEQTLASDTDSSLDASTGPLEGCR

SMILES: CC[C@H](C)[C@H](NC(=O)[C@@H]1CCCN1C(=O)[C@@H](NC(=O)[C@@H](NC(=O)CNC(=O)CNC(=O)[C@@H](NC(=O)[C@H](Cc1ccccc1)NC(=O)[C@@H](NC(=O)[C@H](CCCCN)NC(=O)[C@@H](NC(=O)[C@H](CCCCN)NC(=O)[C@H](CCCCN)NC(=O)[C@H](Cc1ccccc1)NC(=O)[C@@H](NC(=O)[C@H](CCCCN)NC(=O)[C@H](CCCNC(=N)N)NC(=O)[C@H](Cc1ccccc1)NC(=O)CNC(=O)[C@H](CCCCN)NC(=O)[C@H](CCCCN)NC(=O)[C@@H](NC(=O)[C@H](CCCCN)NC(=O)[C@H](CCCNC(=N)N)NC(=O)[C@H](Cc1ccccc1)NC(=O)[C@H](Cc1ccccc1)NC(=O)[C@H](CCCCN)NC(=O)[C@H](CCCCN)NC(=O)[C@H](Cc1ccccc1)NC(=O)[C@H](CCCNC(=N)N)NC(=O)[C@@H](N)CCCCN)[C@@H](C)CC)[C@@H](C)CC)[C@@H](C)O)[C@@H](C)CC)[C@@H](C)CC)[C@@H](C)O)[C@@H](C)CC)C(=O)O (H-KRFKKFFRKIKKGFRKIFKKTKIFIGGTIPI-OH)
- Activity (Staphylococcus aureus [1]): Active
- Activity (Staphylococcus aureus [2]): Active
- inhibition (Macrophage [3]): Dose-dependent effect
- inhibition (Macrophage [4]): Dose-dependent effect
- Activity (Mus musculus [5]): Active
- inhibition (Neutrophil [6]): Active
- Activity (Mus musculus [7]): Active
- Activity (Escherichia coli [8]): Active
- Activity (L02): 4.46%
- fold change (FC) [9]: 8
- MIC [10]: 1.17 mg/L (≈ 0.308 µM)
- MIC (Enterococcus faecium): 1.17 mg/L (≈ 0.308 µM)
- Activity [11]: Non-Toxic
- MIC (Staphylococcus aureus [12]): 1.17 mg/L (≈ 0.308 µM)
- inhibition (Macrophage [13]): Dose-dependent effect
- Activity [14]: Non-Toxic
- MIC (Candida albicans [15]): 1.17 mg/L (≈ 0.308 µM)
- inhibition [16]: 85%
- MIC (Bacillus cereus): 1.17 mg/L (≈ 0.308 µM)
- MIC (Candida albicans [17]): 1.17 mg/L (≈ 0.308 µM)
- MIC (Enterococcus faecalis): 1.17 mg/L (≈ 0.308 µM)
- MIC (Pseudomonas aeruginosa): 1.17 mg/L (≈ 0.308 µM)
- Activity (Neutrophil [18]): inactive
- Activity (Mus musculus [19]): inactive
- inhibition (Macrophage [20]): Dose-dependent effect
- MIC (Staphylococcus aureus [21]): 1.17 mg/L (≈ 0.308 µM)
- MIC (Staphylococcus aureus [22]): < 10 mg/L
- Activity [23]: Non-Toxic
- inhibition (Macrophage [24]): Active
- MIC (Nocardia asteroides): 1.17 mg/L (≈ 0.308 µM)
- inhibition (Macrophage [25]): 92%
- MIC (Nakaseomyces glabratus): 1.17 mg/L (≈ 0.308 µM)
- inhibition at 5 µg/mL [26]: 99.6%
- inhibition (Neutrophil [27]): inactive
- Activity [28]: 6.46%
- Activity (Staphylococcus aureus [29]): Active
- fold change (FC) [30]: 13
- MIC (Escherichia coli [31]): 1.17 mg/L (≈ 0.308 µM)
- inhibition (Neutrophil [32]): inactive
